Experimental data taken from publication PMC10583863 (European journal of medicinal chemistry, 2022).

Experiments:
Type in all cases: cell-based, Mycobacterium tuberculosis
53.8 (Rv0579, L240V) = system: 53.8 (Rv0579, L240V)
NTB1 (dprE1, G387S) = system: NTB1 (dprE1, G387S)
88.7 (pyrG, V186G) = system: 88.7 (pyrG, V186G)
DR1 (mmpl3, V681I) = system: DR1 (mmpl3, V681I)
88.1 (coaA, Q207R) = system: 88.1 (coaA, Q207R)
53.3 (Rv2466c, W28S) = system: 53.3 (Rv2466c, W28S)

Measured: MIC90

NNC(=O)c1ccncc1 [INH, Isoniazide]
0.025 mg/L: all assays above
